Source: US11963997B2, “Anti-tumor polypeptide Bax-BH3, fluorescent polymeric nanomicelle, preparation method and use thereof” (Jilin University, priority 2021, dated 2024)
Residues, ends and D or L forms follow the SMILES beside them. No end group written: not given here. *: point of attachment. Cbz = O=C(OCc1ccccc1)*; CH2F = FC*

How the values were obtained:
[1] = tested on: HEK-293T cells; test: Fluorescence microscopy of HEK-293T cells after transfection (Hoechst 33342 nuclear staining); assay type: cell-based; settings: 1 μg plasmid per well, 4 h transfection then 12 h culture, Z-VAD-FMK 20 μM added 2 h before transfection
Description: (§1) The cultured HEK-293T cells (purchased from ATCC) were digested and counted with a hemocytometer, the resulting cells were diluted with a medium containing 10% fetal bovine serum (FBS) by volume, and added to a six-well plate, with 2×10^5 cells per well. The six-well plate was incubated in a 5% CO2 incubator at 37° C. until the cells grew to 50% to 70% confluence for transfection. […]
(§2) During the transfection, a mass-to-volume ratio (m:v) of the plasmid and the transfection reagent was 1:2, and 1 μg of the plasmid was added to each well of the six-well plate, and 2 μl of the transfection reagent was added correspondingly; the plasmid and transfection reagent were diluted with a serum-free medium in advance, shaken well, and allowed to stand at 25° C. for 5 min separately; the transfection reagent was pipetted to the serum-free medium containing the plasmid, flicked to mix well, and allowed to stand at 25° C. for 20 min to obtain a complex. […] Z-VAD-FMK (Selleck) was added to the six-well plate at a concentration of 20 μM 2 h before the transfection, nuclei were colored with a Hoechst 33342 dye, and condition of the cells after transfection was observed under a fluorescence microscope.

[2] = tested on: HEK-293T cells; test: Annexin V-FITC flow cytometry-based apoptosis assay of transfected cells; assay type: cell-based
Description: as §1
as §2, with “microscope. […]” for “microscope.”

Row | Compound | condition of the cells after transfection observed under a fluorescence microscope [1] | survival rate of cells (FIG. 4) ([2]; HEK-293T cells after transfection, in words) | effect on apoptosis ([2]; Bax-BH3 polypeptide expressed by the recombinant vector transfected into HEK-293T cells)
1 | COC(=O)C[C@H](NC(=O)[C@H](C)NC(=O)[C@@H](NC(=O)OCc1ccccc1)C(C)C)C(=O)CF [Z-VAD-FMK] (Cbz-Val-Ala-Asp(OMe)-CH2F) | significantly inhibit apoptosis | significantly improved | 
2 | DASTKKLSECLRRIGDELDS |  |  | promoting apoptosis
